We go through 30 compounds from patent publication EP4613329A1, “COMPOUND FOR INHIBITING BRD PROTEIN” (Benobio Co., Ltd., priority 2024, dated 2025).

As usually defined, the IC50 is the concentration that inhibits the measured activity by half.

The target of one assay is T1, BRD2 (BD1) (Homo sapiens, UniProt P25440).
T1 construct: a bromodomain of BRD2 (BD1) and BRD3 (BD1), one of the BRD protein family
Kind of assay: Binding inhibitory effect on BRD2 protein (AlphaScreen, GST-BRD2 (BD1) / biotinylated acetyl-histone H4 peptide). To be noted: 100 nM GST-BRD2 (BD1), 100 nM biotinylated acetyl-histone H4 (Lys5, 8, 12, 16) peptide. On the technique in general: In Alpha technology, singlet oxygen from a donor bead excites a nearby acceptor bead.

A further assay has as its target T2, BRD3 (BD1) (Homo sapiens, UniProt Q15059).
T2 construct: a bromodomain of BRD2 (BD1) and BRD3 (BD1), one of the BRD protein family; GST
Description: Binding inhibitory effect on BRD3 protein (same manner as Experimental Example 1-1).

T1 sequence (P25440 74-180 limits assumed, species assumed): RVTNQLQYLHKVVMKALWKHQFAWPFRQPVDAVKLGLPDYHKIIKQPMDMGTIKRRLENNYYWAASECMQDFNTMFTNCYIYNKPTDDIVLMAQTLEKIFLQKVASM
T2 sequence (Q15059 34-140 limits assumed, species assumed): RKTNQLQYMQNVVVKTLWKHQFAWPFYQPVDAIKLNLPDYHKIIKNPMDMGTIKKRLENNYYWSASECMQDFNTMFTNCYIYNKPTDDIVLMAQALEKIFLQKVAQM

`CNCc1ccc(-c2ccccc2-c2cccc3c2CN(C)C3=O)o1` [Compound 1, 2-methyl-4-(2-(5-((methylamino)methyl)furan-2-yl)phenyl)isoindoline-1-one]: the IC50 on BRD2 (BD1) came out at 16.9 µM; on BRD3 (BD1), 1.39 µM.

As for `CCNCc1ccc(-c2ccccc2-c2cccc3c2CN(C)C3=O)o1` [Compound 2, 2-methyl-4-(2-(5-((ethylamino)methyl)furan-2-yl)phenyl)isoindoline-1-one], the figures for the IC50 on BRD2 (BD1) and at BRD3 (BD1) were 16.8 µM and 1.26 µM, respectively.

Consider `CCCNCc1ccc(-c2ccccc2-c2cccc3c2CN(C)C3=O)o1` [Compound 3, 2-methyl-4-(2-(5-((propylamino)methyl)furan-2-yl)phenyl)isoindoline-1-one], for which the results for the IC50 on BRD2 (BD1) and on BRD3 (BD1) were 14.1 µM and 4.51 µM, respectively.

For `COCNCc1ccc(-c2ccccc2-c2cccc3c2CN(C)C3=O)o1` [Compound 4, 2-methyl-4-(2-(5-((methoxymethylamino)methyl)furan-2-yl)phenyl)isoindoline-1-one], the figures for the IC50 on BRD2 (BD1) and on BRD3 (BD1) were 17.4 µM and 4.43 µM, respectively.

In the case of `CN(C)CCNCc1ccc(-c2ccccc2-c2cccc3c2CN(C)C3=O)o1` [Compound 5, 2-methyl-4-(2-(5-((dimethylaminoethylamino)methyl)furan-2-yl)phenyl)isoindoline-1-one], the IC50 at BRD2 (BD1) was found to be 12.4 µM; at BRD3 (BD1) it was 2.36 µM.

`C#CCN(C)Cc1ccc(-c2ccccc2-c2cccc3c2CN(C)C3=O)o1` [Compound 6]: the half-maximal inhibitory concentration (IC50) on BRD2 (BD1) was 15.8 µM; on BRD3 (BD1) it was 2.61 µM.

As for `CN1Cc2c(cccc2-c2ccccc2-c2ccc(CNC3CCCC3)o2)C1=O` [Compound 7, 2-methyl-4-(2-(5-((cyclopentylamino)methyl)furan-2-yl)phenyl)isoindoline-1-one], the IC50 on BRD2 (BD1) is 18.2 µM; at BRD3 (BD1), 4.35 µM.

Take `CC(C)NCc1ccc(-c2ccccc2-c2cccc3c2CN(C)C3=O)o1` [Compound 8, 2-methyl-4-(2-(5-((isopropylamino)methyl)furan-2-yl)phenyl)isoindoline-1-one]: the IC50 at BRD3 (BD1) stood at 2.2 µM.

On to `CN1Cc2c(cccc2-c2ccccc2-c2ccc(CNCCS(C)(=O)=O)o2)C1=O` [Compound 9], for which the IC50 on BRD2 (BD1) is 19.7 µM; on BRD3 (BD1) it was 3.85 µM.

As to `CN1CCN(CCNCc2ccc(-c3ccccc3-c3cccc4c3CN(C)C4=O)o2)CC1` [Compound 10, 2-methyl-4-(2-(5-(((2-(4-methylpiperazine-1-yl)ethyl)amino)methyl)furan-2-yl)phenyl)isoindoline-1-one], the IC50 on BRD2 (BD1) was determined as 11.4 µM; at BRD3 (BD1), 3.89 µM.

On to `CN1Cc2c(cccc2-c2ccccc2-c2ccc(CN3CCN(S(C)(=O)=O)CC3)o2)C1=O` [Compound 11], for which the IC50 at BRD2 (BD1) is 16.6 µM; on BRD3 (BD1), 3.71 µM.

On to `CN1Cc2c(cccc2-c2ccccc2-c2ccc(CN3CCCCC3)o2)C1=O` [Compound 12, 2-methyl-4-(2-(5-(piperidine-1-ylmethyl)furan-2-yl)phenyl)isoindoline-1-one], for which the results for the IC50 on BRD2 (BD1) and on BRD3 (BD1) were 14.5 µM and 2.99 µM, respectively.

Regarding `CN1Cc2c(cccc2-c2ccccc2-c2ccc(CN3CCN(c4cccc(F)c4)CC3)o2)C1=O` [Compound 14, 2-methyl-4-(2-(5-(((4-(3-fluorophenyl)piperazine-1-yl)methyl))furan-2-yl)phenyl)isoindoline-1-one], the IC50 amounted to 13.3 µM on BRD2 (BD1) and 2.4 µM at BRD3 (BD1).

Regarding `CN1Cc2c(cccc2-c2ccccc2-c2ccc(CN3CCC(N(C)C)CC3)o2)C1=O` [Compound 15, 2-methyl-4-(2-(5-((4-(dimethylamino)piperidine-1-yl)methyl)furan-2-yl)phenyl)isoindoline-1-one], the IC50 on BRD2 (BD1) came out at 15.8 µM; on BRD3 (BD1) it was 2.56 µM.

As to `CN1Cc2c(cccc2-c2ccccc2-c2ccc(CN3CCN(C(C)(C)C(N)=O)CC3)o2)C1=O` [Compound 16], the IC50 at BRD2 (BD1) is 15.8 µM; at BRD3 (BD1), 1.75 µM.

With `CN1Cc2c(cccc2-c2ccccc2-c2ccc(CNCc3ccccc3)o2)C1=O` [Compound 17, 2-methyl-4-(2-(5-((benzylamino)methyl)furan-2-yl)phenyl)isoindoline-1-one], the IC50 was 14 µM on BRD2 (BD1) and 3.61 µM at BRD3 (BD1).

With `CNC(=O)C1(Cc2ccccc2)CCN(Cc2ccc(-c3ccccc3-c3cccc4c3CN(C)C4=O)o2)CC1` [Compound 19], the IC50 on BRD2 (BD1) was determined as 13.9 µM; on BRD3 (BD1), 1.4 µM.

As to `CN1Cc2c(cccc2-c2ccccc2-c2ccc(CN3CCC(Cc4ccc(F)cc4)(C(=O)NCc4ccccc4)CC3)o2)C1=O` [Compound 20], the IC50 on BRD2 (BD1) was found to be 16.7 µM; on BRD3 (BD1), 3.72 µM.

`CN1Cc2c(cccc2-c2ccccc2-c2ccc(CN3CCC4(CC3)C(=O)NCC4c3ccc(F)cc3)o2)C1=O` (centres unmarked) [Compound 22, 2-methyl-4-(2-(5-((4-(4-fluorophenyl)-2λ^2,8-diazaspiro[4,5]decan-1-one)methyl)furan-2-yl)phenyl)isoindoline-1-one]: the IC50 at BRD2 (BD1) was found to be 13.7 µM; on BRD3 (BD1) it was 1.19 µM.

As for `CN1Cc2c(cccc2-c2ccccc2-c2ccc(CN3CCC4(CC3)C(=O)N(C)CC4c3ccc(F)cc3)o2)C1=O` (centres unmarked) [Compound 23, 2-methyl-4-(2-(5-(((4-(4-fluorophenyl)-2-methyl)-2λ^2,8-diazaspiro[4,5]decan-1-one)methyl)furan-2-yl)phenyl)isoindoline-1-one], the IC50 was determined as 15.3 µM on BRD2 (BD1) and 1.3 µM at BRD3 (BD1).

With `CCC1(C(=O)NC)CCCN(Cc2ccc(-c3ccccc3-c3cccc4c3CN(C)C4=O)o2)C1` (centres unmarked) [Compound 24], the IC50 at BRD2 (BD1) came out at 15.2 µM; on BRD3 (BD1) it was 1.67 µM.

For `CNC(=O)CC1C(=O)NCCN1Cc1ccc(-c2ccccc2-c2cccc3c2CN(C)C3=O)o1` (centres unmarked) [Compound 26], the figures for the IC50 on BRD2 (BD1) and at BRD3 (BD1) were 13 µM and 1.38 µM, respectively.

In the case of `CN1Cc2c(cccc2-c2ccccc2-c2ccc(CN3CCC(Cc4ccccc4)(C(N)=O)CC3)o2)C1=O` [Compound 29, 2-methyl-4-(2-(5-(((4-benzyl-4'-carboxamidyl)piperidine)methyl)furan-2-yl)phenyl)isoindoline-1-one], the IC50 at BRD2 (BD1) came to 14.6 µM; at BRD3 (BD1) it was 4.86 µM.

Turning to `CN1Cc2c(cccc2-c2ccccc2-c2ccc(CN3CCC(Cc4ccncc4)(C(N)=O)CC3)o2)C1=O` [Compound 31, 2-methyl-4-(2-(5-(((4-pyridinylmethyl-4'-carboxamidyl)piperidine)methyl)furan-2-yl)phenyl)isoindoline-1-one], the IC50 at BRD2 (BD1) worked out at 15 µM; at BRD3 (BD1) it was 2.78 µM.

Take `CNC(=O)C1(Cc2ccc(F)cc2)CCN(C(=O)c2ccc(-c3ccccc3-c3cccc4c3CN(C)C4=O)o2)CC1` [Compound 32, 2-methyl-4-(2-(5-(((4-(4-fluorobenzyl)-4'-carboxamidyl)piperidine)carbonyl)furan-2-yl)phenyl)isoindoline-1-one]: the IC50 at BRD2 (BD1) came to 16.8 µM; on BRD3 (BD1), 3.99 µM.

For `CNC(=O)c1ccc(-c2ccccc2-c2cccc3c2CN(C)C3=O)o1` [Compound 33, 2-methyl-4-(2-(5-((methylamino)carbonyl)furan-2-yl)phenyl)isoindoline-1-one], the values for the IC50 at BRD2 (BD1) and on BRD3 (BD1) were 11.1 µM and 2.39 µM, respectively.

Turning to `CNC(=O)C1(C)CN(C(=O)c2ccc(-c3ccccc3-c3cccc4c3CN(C)C4=O)o2)CCC1O` (centres unmarked) [Compound 34], the IC50 on BRD2 (BD1) stood at 15.7 µM; at BRD3 (BD1), 4.68 µM.

As for `CCC1(C(=O)NC)CCCN(C(=O)c2ccc(-c3ccccc3-c3cccc4c3CN(C)C4=O)o2)C1` (centres unmarked) [Compound 36], the IC50 was 14.5 µM at BRD2 (BD1) and 4.26 µM at BRD3 (BD1).

As for `CNCc1oc(-c2ccccc2-c2cccc3c2CN(C)C3=O)cc1C` [Compound 38], the IC50 on BRD2 (BD1) was 12.5 µM; on BRD3 (BD1), 1.12 µM.

As for `CNC(=O)C1(C)CN(Cc2oc(-c3ccccc3-c3cccc4c3CN(C)C4=O)cc2C)CCC1O` (centres unmarked) [Compound 41], the results for the IC50 on BRD2 (BD1) and at BRD3 (BD1) were 15.5 µM and 2.14 µM, respectively.
